Patent publication US20210112813A1, “HERBICIDAL COMPOSITION AND USE THEREOF” (NANTONG JIANGSHAN AGROCHEMICAL & CHEMICALS CO., LTD., priority 2019, published 2021)

Experiments:
Eclipta alba = assay: Greenhouse pot test, pre-emergence soil treatment, visual control effect 30 days after treatment, Gowing method; type: in vivo
Bristlegrass = assay: as above; type: in vivo
Method: In the present application, indoor combined action of the compound of herbicide active component A and B on weeds was measured to determine the combined effect of the composition on weeds, wherein the structure of the active component A was as follows:
The weed cultivation method was as follows: quantitative weed seeds abutilon and bristlegrass were respectively sown in a paper cup filled with nutrient soil with a diameter of 7 cm, and then cultivated in the greenhouse after covering the soil, suppressing and watering. The post-emergence stem and leaf treatment was performed when the grass weeds grew to 5-7 leaf stage, broad-leaved weeds grew to 6-8 leaf stage; the pre-emergence soil treatment was performed the second day after sowing, and the early post-emergence treatment was performed after sowing and before emergence; the experiment was repeated 3 times. After the treatment and drug solution naturally dried, the weeds were placed in the greenhouse to be managed according to conventional methods. According to the suppression or death of the weeds, a visual control effect investigation was conducted 30 days after the treatment. The application adopted the Gowing method to evaluate the combined effect of the proposed composition.
X—Weed control effect when the amount of herbicide component A is P;
Y—Weed control effect when the amount of herbicide component B is Q;
E0—Theoretical control effect when the amount of herbicide component A is […];
E—The measured control effect after the herbicide component A and the herbicide component B are mixed according to the above ratio.
When E−E0>10%, it is synergism; when E−E0<−10%, it is antagonism; when E−E0 value is between ±10%, it is addition.

Row | Structure (SMILES) | Measured value E (Eclipta alba; Table 3, dose 75 ga.i./hm^2) [%] | Measured value E (Eclipta alba; Table 3, dose 150 ga.i./hm^2) [%] | Measured value E (Bristlegrass; Table 3, dose 75 ga.i./hm^2) [%] | Measured value E (Bristlegrass; Table 3, dose 150 ga.i./hm^2) [%]
1 | CCCCOCN(C(=O)CCl)c1c(CC)cccc1CC [Butachlor] | 15 | 25 | 45 | 60
2 | CCOCN(C(=O)CCl)c1c(C)cccc1CC [Acetochlor] | 10 | 35 | 50 | 75
